Read-outs that look alike come from different tables or passages of the source.
Assays:
[1] = Water solubility study on drug loaded dendrimers; type: physicochemical
Experimental: Protocol: To 30 mg of dendrimer (freeze-dried from water) was added 100 μL of deionised water. After mixing for 10 minutes, additional aliquots of water (10-30 μL per addition) were added with vortexing and incubation for 10 mins until full dissolution was obtained. This amount is represented in Table 1 as the water solubility of the dendrimer. The equivalent drug solubility is determined by multiplying the % drug loading/100 and is represented in Table 1 (column 3) as Equivalent drug solubility on dendrimer. Finally, the fold increase is obtained by dividing the Equivalent drug solubility on dendrimer by the solubility of the drug and is represented in Table 1 (column 4).

[2] = test system: H460 (Lung); assay: Cell growth inhibition SRB assay; type: cell-based
Experimental: (§1) All solutions were prepared in saline (except docetaxel which was made in ethanol). All solutions were stored at −20° C. All values were based on the equivalent drug loading.

[3] = test system: PC-3 (Prostate); assay: Cell growth inhibition SRB assay; type: cell-based
Experimental: as §1

[4] = test system: ES2 (Ovarian); assay: Cell growth inhibition SRB assay; type: cell-based
Experimental: as §1

[5] = test system: H460; assay: IC50 using the MTT assay; type: cell-based; settings: 72 hours
Experimental: (§2) The IC50 using the MTT assay [Wilson, Anne P. (2000). “Chapter 7: Cytotoxicity and viability”. In Masters, John R. W. Animal Cell Culture: A Practical Approach. Vol. 1 (3rd ed.). Oxford: Oxford University Press] was determined against various cancer cell lines after 72 hours.

[6] = test system: A549; assay: IC50 using the MTT assay; type: cell-based; settings: 72 hours
Experimental: as §2

[7] = test system: MCF-7; assay: IC50 using the MTT assay; type: cell-based; settings: 72 hours
Experimental: as §2

[8] = test system: PC-3; assay: IC50 using the MTT assay; type: cell-based; settings: 72 hours
Experimental: as §2

[9] = test system: HCT-116; assay: IC50 using the MTT assay; type: cell-based; settings: 72 hours
Experimental: as §2

[10] = test system: DU-145; assay: IC50 using the MTT assay; type: cell-based; settings: 72 hours
Experimental: as §2

[11] = test system: A2780; assay: IC50 using the MTT assay; type: cell-based; settings: 72 hours
Experimental: as §2

[12] = test system: HT-29; assay: IC50 using the MTT assay; type: cell-based; settings: 72 hours
Experimental: as §2

[13] = test system: MDA-MB-231 (Breast); assay: Cell growth inhibition SRB assay; type: cell-based
Experimental: as §1

[14] = test system: HT29 (Colon); assay: Cell growth inhibition SRB assay; type: cell-based
Experimental: as §1

[15] = test system: A2058 (Melanoma); assay: Cell growth inhibition SRB assay; type: cell-based
Experimental: as §1

[16] = test system: DU145 (Prostate); assay: Cell growth inhibition SRB assay; type: cell-based
Experimental: as §1

[17] = test system: A549 (Lung); assay: Cell growth inhibition SRB assay; type: cell-based
Experimental: as §1

[18] = test system: HCT116 (Colon); assay: Cell growth inhibition SRB assay; type: cell-based
Experimental: as §1

[19] = test system: MCAS (Ovarian); assay: Cell growth inhibition SRB assay; type: cell-based
Experimental: as §1

[20] = Plasma stability study: docetaxel release in mouse plasma; type: in vitro ADME; settings: 37° C.
Experimental: Protocol: To 0.5 mL of mouse plasma was added 0.1 mL of dendrimer solution (2 mg/mL, drug equivalent in saline). The mixtures were vortexed (30 s) then incubated at 37° C. At various timepoints (0.5, 2.5, 4.5, 22 hours) 0.1 mL aliquots were removed and added to 0.2 mL ACN. The resulting mixtures were vortexed (30 s), centrifuged (10 min, 4° C.) filtered and analysed by HPLC (C8, 3.9×150 mm, 5 μm, wavelength=243 nm, 10 μL injections, gradient: 40-80% ACN/H2O (1-7 min), 80% ACN (7-9 min), 80-40% ACN (9-11 min), 40% ACN (11-15 min), 10 mM ammonium formate, pH 7.40) which when compared against a standard (2 mg//mL) provided the concentration of free docetaxel in the sample.

[21] = equivalent drug solubility divided by solubility of the drug
[22] = water solubility x % drug loading/100
[23] = H460, 72 hours, equivalent drug loading, average of duplicate
[24] = PC-3, 72 hours, equivalent drug loading, average of duplicate
[25] = ES2, 72 hours, equivalent drug loading, average of duplicate
[26] = MDA-MB-231, 72 hours, equivalent drug loading, average of duplicate
[27] = HT29, 72 hours, equivalent drug loading, average of duplicate
[28] = A2058, 72 hours, equivalent drug loading, average of duplicate
[29] = DU145, 72 hours, equivalent drug loading, average of duplicate
[30] = A549, 72 hours, equivalent drug loading, average of duplicate
[31] = HCT116, 72 hours, equivalent drug loading, average of duplicate
[32] = MCAS, 72 hours, equivalent drug loading, average of duplicate
[33] = deionised water, until full dissolution

BHALys[Lys]32[α-Glu-PTX]32[ε-PEG2300]32 [Example 12]
Water solubility of dendrimer [1]: 15 mg/mL
Fold increase in drug solubility [1, 21]: 10000
Equivalent drug solubility on dendrimer [1, 22]: 3 mg/mL

BHALys[Lys]32[α-Glu-Testosterone]32[ε-PEG570]32 [Example 23]
Equivalent drug solubility on dendrimer [1]: 26.6 mg/mL
Fold increase in drug solubility [1]: 1109
Water solubility of dendrimer [1]: >125 mg/mL

BHALys[Lys]32[α-PEG2-DTX]32[ε-PEG1100]32 [10 (b)]
GI50 [2, 23]: 6.5 nM
GI50 [3, 24]: 9.5 nM
GI50 [4, 25]: 10.5 nM

BHALys[Lys]32[α-PDT-DTX]32[ε-PEG1100]32 [9 (b)]
GI50 [2, 23]: 365 nM
GI50 [3, 24]: 618 nM
GI50 [4, 25]: 888 nM

BHALys[Lys]32[α-GFLG-Glu-DTX]32[ε-PEG1100]32 [15 (c)]
IC50 [5]: 31.8 nM
IC50 [6]: 8.1 nM
IC50 [7]: 8.3 nM
IC50 [8]: 11.8 nM
IC50 [9]: 7.2 nM
IC50 [10]: 29.5 nM
IC50 [11]: 13.6 nM
IC50 [12]: 5.7 nM

BHALys[Lys]32[α-4-HSBA-4Aba-DTX]32[ε-PEG1100]32 [1 (b)]
GI50 [2, 23]: 13 nM
GI50 [13, 26]: 11.5 nM
GI50 [14, 27]: 12.5 nM
GI50 [15, 28]: 9.5 nM
GI50 [16, 29]: 11.5 nM
GI50 [3, 24]: 17 nM
GI50 [17, 30]: 13 nM
GI50 [18, 31]: 8.5 nM
GI50 [19, 32]: 29 nM
GI50 [4, 25]: 16.5 nM

BHALys[Lys]32[α-Glu-DTX]32[ε-PEG1100]32 [5 (b)]
GI50 [2]: 106 nM
GI50 [13]: 50.5 nM
GI50 [14]: 97.5 nM
GI50 [15]: 71.5 nM
GI50 [16]: 148 nM
GI50 [3]: 160 nM
GI50 [17]: 56.5 nM
GI50 [18]: 85.5 nM
GI50 [19]: 252 nM
GI50 [4]: 116 nM
Water solubility of dendrimer [1, 33]: 214 mg/mL
Fold increase in drug solubility [1, 21]: 4000
Equivalent drug solubility on dendrimer [1, 22]: 75 mg/mL
Docetaxel release in plasma ([20]; 0.5 hours): 0 percentage of total docetaxel
Docetaxel release in plasma ([20]; 2.5 hours): 0 percentage of total docetaxel
Docetaxel release in plasma ([20]; 22 hours): 4 percentage of total docetaxel

BHALys[Lys]32[α-GGG-Glu-DTX]32[ε-PEG1100]32 [14 (c)]
IC50 [5]: 4.3 nM
IC50 [6]: 1.5 nM
IC50 [7]: 0.5 nM
IC50 [8]: 3.8 nM
IC50 [9]: 2.6 nM
IC50 [10]: 7.3 nM
IC50 [11]: 4.6 nM
IC50 [12]: 0.5 nM

BHALys[Lys]32[α-Glu-GEM]32[ε-PEG1100]32 [13 (b)]
GI50 [2, 23]: 127 nM
GI50 [13, 26]: 50.5 nM
GI50 [14, 27]: 117 nM
GI50 [15, 28]: 100 nM
GI50 [16, 29]: 99 nM
GI50 [3, 24]: 288 nM
GI50 [17, 30]: 73 nM
GI50 [18, 31]: 30.5 nM
GI50 [19, 32]: 117 nM
GI50 [4, 25]: 48 nM

BHALys[Lys]32[α-PEG1100]32[ε-TDA-DTX]32 [Example 18]
IC50 [5]: 7.5 nM
IC50 [6]: 20.3 nM
IC50 [7]: 3.3 nM
IC50 [8]: 5.9 nM
IC50 [9]: 2.9 nM
IC50 [10]: 11.6 nM
IC50 [11]: 5.7 nM
IC50 [12]: 1.8 nM

BHALys[Lys]32[α-MIDA-DTX]32[ε-PEG1100]32 [6 (b)]
GI50 [2]: 11 nM
GI50 [3]: 10.5 nM
GI50 [4]: 12.5 nM
Water solubility of dendrimer [1, 33]: 100 mg/mL
Fold increase in drug solubility [1, 21]: 6400
Equivalent drug solubility on dendrimer [1, 22]: 32 mg/mL
Docetaxel release in plasma ([20]; 0.5 hours): 7.5 percentage of total docetaxel
Docetaxel release in plasma ([20]; 2.5 hours): 9 percentage of total docetaxel
Docetaxel release in plasma ([20]; 22 hours): 23.5 percentage of total docetaxel

BHALys[Lys]32[α-PSSP-DTX]32[ε-PEG1100]32 [2 (b)]
GI50 [2, 23]: 73 nM
GI50 [3, 24]: 110 nM
GI50 [4, 25]: 116 nM
Water solubility of dendrimer [1]: 57 mg/mL
Fold increase in drug solubility [1, 21]: 2800
Equivalent drug solubility on dendrimer [1, 22]: 14 mg/mL
Docetaxel release in plasma ([20]; 0.5 hours): 5 percentage of total docetaxel
Docetaxel release in plasma ([20]; 2.5 hours): 8 percentage of total docetaxel
Docetaxel release in plasma ([20]; 22 hours): 15.5 percentage of total docetaxel

BHALys[Lys]32[α-GILGVP-Glu-DTX]32[ε-t-PEG2300]32 [Example 17]
IC50 [5]: 603 nM
IC50 [6]: 160 nM
IC50 [7]: 93.7 nM
IC50 [8]: 359 nM
IC50 [9]: 216 nM
IC50 [10]: 290 nM
IC50 [11]: 291 nM
IC50 [12]: 85 nM

BHALys[Lys]32[α-Glu-Testosterone]32[ε-PEG1100]32 [22 (b)]
Equivalent drug solubility on dendrimer [1]: 14.7 mg/mL
Fold increase in drug solubility [1]: 610
Water solubility of dendrimer [1]: >89 mg/mL

BHALys[Lys]32[α-DGA-Testosterone]32[ε-PEG570]32 [Example 21]
Equivalent drug solubility on dendrimer [1]: 14.8 mg/mL
Fold increase in drug solubility [1]: 618
Water solubility of dendrimer [1]: >81 mg/mL

BHALys[Lys]32[α-o-PDA-DTX]32[ε-PEG1100]32 [7 (b)]
GI50 [2]: 4.5 nM
GI50 [3]: 6.5 nM
GI50 [4]: 8 nM
Water solubility of dendrimer [1, 33]: 91 mg/mL
Fold increase in drug solubility [1, 21]: 5000
Equivalent drug solubility on dendrimer [1, 22]: 25 mg/mL
Docetaxel release in plasma ([20]; 0.5 hours): 20.5 percentage of total docetaxel
Docetaxel release in plasma ([20]; 2.5 hours): 32 percentage of total docetaxel
Docetaxel release in plasma ([20]; 22 hours): 71.5 percentage of total docetaxel

BHALys[Lys]32[α-DGA-Testosterone]32[ε-PEG1100]32 [20 (b)]
Equivalent drug solubility on dendrimer [1]: 11.5 mg/mL
Fold increase in drug solubility [1]: 482
Water solubility of dendrimer [1]: >75 mg/mL

Source: patent US20240335548A1, “MACROMOLECULES” (Starpharma Pty Ltd, priority 2011, published 2024)
